How the values were obtained:
Format in all cases: in vivo
[1] = system: tetraploidem Roggen Belta; assay: Field test of gametocidal activity, tetraploid rye Belta; conditions: period V, 1% aqueous emulsion, 6 kg/ha in 600 l water; for Prozentsatz des Ansetzens von Samen bei freier Bestäubung: control = 100
Excerpt: (§1) Die gametozide Aktivität der erfindungsgemäßen Sterilisationsmittel war in Feldversuchen in verschiedenen bodenklimatischen Zonen mit Teilstücken von 10 m^2 Größe in dreibis viermaliger Wiederholung festgestellt. Jedes Sterilisationsmittel wurde mindenstens 5 Jahre lang geprüft.
(§2) Die Entwicklung der Perioden der Organogenese wird zytologisch überwacht. Die Behandlung von Pflanzen mit dem Sterilisationsmittel erfolgt am Anfang der fünften Periode der Organogenese nach Kupermann.
(§3) Mit dem Ährenschieben verwirklicht man die Isolierung von Hauptähren und anderen Stockwerken in Pergametbeuteln. Bei Weizen und Tritikale werden Einzelisolatoren benutzt. Bei Roggen schließt man je 1 Ähre von […] verschiedenen nebeneinander befindlichen Pflanzen unter einen gemeinsamen Isolator ein. Bei Hirse wird jede Rispe getrennt isoliert. Der Sterilitätsprozentsatz (X) für Weizen, Roggen, Tritikale und Hirse wird nach der Formel [formula] ermittelt.
(§4) Die Kornzahl in nicht isolierten Ähren von Kontrollpflanzen wird bedingt für 100 % Ansetzen bei freier Bestäubung angenommen.
(§5) Um zuverlässige Angaben zu erhalten, verwendet man 20 bis 25 Isolatoren je Wiederholung für Weizen und Tritikale, 10 bis 15 Isolatoren jeder Wiederholung für Roggen und Hirse.
Pflanzen von tetraploidem Roggen Belta werden in der V.Periode der Organogenese (nach Kupermann) mit einer 1%igen wäßrigen Emulsion von 1,1,3-Tribrompropan, 1,1,3--Tribrom-4-chlorbutan, 1,1,2,3-Tetrabrompropan, 1,2,3-Tribrompropan, 1,1,3-Tribrom-3-chlorpropan bzw. 1,2-Dibrom--3-chlorpropan behandelt.
Die Emulsion enthält 0,5 Masse% C12-C14-Kalziumalk^yl-benzolsulfonat und 0,01 Masse% Dimethylsulfoxid. Der Verbrauch an Präparat beträgt 6 kg/ha bei 600 1 Wasserdurchsatz.Die Prüfergebnisse sind in der Tabelle 7 angegeben. Die gleichen Ergebnisse sind bei der Behandlung von tetraploidem Roggen Belta in der VI. Periode der Organogenese erhalten.

Tritikale PRAG-109 = assay: Field test of gametocidal activity, triticale PRAG-109; conditions: period V, 1% aqueous emulsion, 6 kg/ha in 600 l water; for Prozentsatz des Ansetzens von Samen bei freier Bestäubung: control = 100
Excerpt: as §1, §2, §3, §4, §5
Pflanzen von Tritikale PRAG-109 werden in der V.Periode der Organogenese (nach Kupermann) mit einer 1%igen wäßrigen Emulsion von 1,1,1,3-Tetrabromheptan, 1,1,3-Tribromheptan, 1,2,3-Tribrompropan bzw. 1,2-Dibrom-3-chlor- propan behandelt. Die Emulsion enthält 0,5 Masse% C12-C14--Kalziumalkylbenzolsulfonat und 0,01 Masse% Dodezylsulfat. Der Verbrauch an Präparat beträgt 6 kg/ha bei 600 1 Wasserdurchsatz. Als Kontrolle dienen Pflanzen, behandelt mit dem Verdünner ohne Sterilisationsmittel. Die Prüfergebnisse sind in der Tabelle 5 angegeben. Die gleichen Ergebnisse sind bei der Behandlung von Tritikale PRAG-109 in der VI. Periode der Organogenese erhalten.

[2] = system: tetraploidem Roggen Ukrainskaya tetra; assay: Field test of gametocidal activity, tetraploid rye Ukrainskaya tetra; conditions: period V, 1% aqueous emulsion, 6 kg/ha in 600 l water; for Prozentsatz des Ansetzens von Samen bei freier Bestäubung: control = 100
Excerpt: as §1, §2, §3, §4, §5
Pflanzen von tetraploidem Roggen Ukrainskaya tetra werden in der V.Periode der Organogenese (nach Kupermann) mit einer 1%igen wäßrigen Emulsion von 1,2,3-Tribrompropan, 1,2-Dibrompropan bzw. 1,2-Dibrom-3-chlorpropan behandelt. Die Emulsion enthält 0,5 Masse% C12-C14-Kalzium- alkylbenzolsulfonat und 0,01 Masse% Tetrahydrofuran. Der Verbrauch an Präparat beträgt 6 kg/ha bei 600 1 Wasserdurchsatz. Als Kontrolle dienen Pflanzen, behandelt mit dem Verdünner ohne Sterilisationsmittel. Die Prüfergebnisse sind in der Tabelle 8 angegeben. Die gleichen Ergebnisse sind bei der Behandlung von tetraploidem Roggen Ukrainskaya in der VI. Periode der Organogenese erhalten.

[3] = system: tetraploidem Roggen Jubileinaya; assay: Field test of gametocidal activity, tetraploid rye Jubileinaya; conditions: period V, 1% aqueous emulsion, 8 kg/ha in 800 l water; for Prozentsatz des Ansetzens Samen bei freier Bestäubung: control = 100
Excerpt: as §1, §2, §3, §4, §5
(§6) Pflanzen von tetraploidem Roggen Jubileinaya werden in der V. Periode der Organogenese mit einer 1%igen wäßrigen Emulsion von 1,2,3-Tribrompropan, 1,2-Dibrompropan bzw. 1,2-Dibrom-3-chlorpropan behandelt. Die Emulsion enthält 0,5 Masse% C12-C14-Kalziumalkylbenzolsulfonat und 0,01 Masse% Dodezylsulfat. Der Verbrauch an Präparat beträgt 8 kg/ha bei 800 1 Wasserdurchsatz. Die Prüfergebnisse sind in der Tabelle 9 angegeben. Die gleichen Ergebnisse sind bei der Behandlung von tetraploidem Roggen Jubileinaya in der VI. Periode der Organogenese erhalten.

[4] = system: tetraploidem Roggen Gibrid 67; assay: Field test of gametocidal activity, tetraploid rye Gibrid 67; conditions: period V, 1% aqueous emulsion, 10 kg/ha; for Prozentsatz des Ansetzens von Samen bei freier Bestäubung: control = 100
Excerpt: as §1, §2, §3, §4, §5
as §6, with “Gibrid 67” for “Jubileinaya”, “V.Periode” for “V. Periode”, “l%igen” for “1%igen”, “Dimethylsulfoxid.” for “Dodezylsulfat.”, “10 kg/ha.” for “8 kg/ha bei 800 1 Wasserdurchsatz.”, “10” for “9”

[5] = system: diploidem Roggen Gibrid 1864/79; assay: Field test of gametocidal activity, diploid rye Gibrid 1864/79; conditions: period V, 1% aqueous emulsion, 6 kg/ha in 600 l water; for Prozentsatz des Ansetzens von Samen bei freier Bestäubung: control = 100
Excerpt: as §1, §2, §3, §4, §5
Pflanzen von diploidem Roggen Gibrid 1864/79 werden in der V. Periode der Organogenese mit einer l%igen wäßrigen Emulsion von 1,2,3-Tribrompropan, 1,2-Dibrompropan, 1,1,1,3--Tetrabromheptan, 1,1,3-Tribromheptan behandelt. Die Emulsion enthält 0,5 Masse% C12-C14-Kalziumalkylbenzolsulfonat und 0,01 Masse% Äthylenglykol. Der Verbrauch an Präparat beträgt 6 kg/ha bei 600 1 Wasserdurchsatz. Die Prüfergebnisse sind in der Tabelle 12 angegeben. Die gleichen Ergebnisse sind bei der Behandlung von diploidem Roggen Gibrid 1864/79 in der VI. Periode der Organogenese erhalten.

SMILES	Kornzahl der Ähre bei freier Bestäubung [1]	Kornzahl der Ähre im Isolator [1]	Prozentsatz der Sterilität [1]	Prozentsatz des Ansetzens von Samen bei freier Bestäubung [1]	Kornzahl der Ähre bei freier Bestäubung (Tritikale PRAG-109)	Kornzahl der Ähre im Isolator (Tritikale PRAG-109)	Prozentsatz der Sterilität (Tritikale PRAG-109)	Prozentsatz des Ansetzens von Samen bei freier Bestäubung (Tritikale PRAG-109)	Kornzahl der Ähre bei freier Bestäubung [2]	Kornzahl der Ähre unter Isolator [2]	Prozentsatz der Sterilität [2]	Prozentsatz des Ansetzens von Samen bei freier Bestäubung [2]	Kornzahl der Ähre bei freier Bestäubung [3]	Kornzahl der Ähre unter Isolator [3]	Prozentsatz der Sterilität [3]	Prozentsatz des Ansetzens Samen bei freier Bestäubung [3]	Kornzahl der Ähre bei freier Bestäubung [5]	Kornzahl der Ähre unter Isolator [5]	Prozentsatz der Sterilität [5]	Prozentsatz des Ansetzens von Samen bei freier Bestäubung [5]	also measured
BrCCC(Br)Br [Beispiel 1, 1,1,3-Tribrompropan]	34,5	1,2	97,0%	78,1%																	
BrCC(Br)CBr [Beispiel 4, 1,2,3-Tribrompropan]	42,0	0,0	100,0%	95,0%	40,5	0,2	99,5%	88,4%	48,6	0,0	100,0%	94,2%	47,6	0,1	99,8%	90,3%	42,1	0,0	100,0%	88,0%	Kornzahl der Ähre bei freier Bestäubung [4]: 40,6; Kornzahl der Ähre im Isolator [4]: 0,6; Prozentsatz der Sterilität [4]: 98,6%; Prozentsatz des Ansetzens von Samen bei freier Bestäubung [4]: 82,0%
CC(Br)CBr (centres unmarked) [Beispiel 5, 1,2-Dibrompropan]									47,5	0,3	99,4%	92,1%	48,1	0,0	100,0%	91,2%	46,4	0,0	100,0%	97,1%	Kornzahl der Ähre bei freier Bestäubung [4]: 42,7; Kornzahl der Ähre im Isolator [4]: 0,2; Prozentsatz der Sterilität [4]: 99,5%; Prozentsatz des Ansetzens von Samen bei freier Bestäubung [4]: 86,3%
ClCC(Br)CBr (centres unmarked) [Beispiel 7, 1,2-Dibrom-3-chlorpropan]	37,4	0,0	100,0%	84,6%	42,6	1,1	97,3%	93,0%	45,8	0,6	98,8%	88,7%	50,2	0,4	99,2%	95,2%					Kornzahl der Ähre bei freier Bestäubung [4]: 45,2; Kornzahl der Ähre im Isolator [4]: 0,0; Prozentsatz der Sterilität [4]: 100,0%; Prozentsatz des Ansetzens von Samen bei freier Bestäubung [4]: 91,3%
CCCCC(Br)CC(Br)(Br)Br (centres unmarked) [Beispiel 9, 1,1,1,3-Tetrabromheptan]					61,8	0,0	100,0%	89,6%									49,2	0,0	100,0%	103,0%	
CCCCC(Br)CC(Br)Br (centres unmarked) [Beispiel 10, 1,1,3-Tribromheptan]					59,6	0,0	100,0%	86,4%									52,6	0,0	100,0%	109,8%	
